How the values were obtained:
[1] = Dissociation constant, pKa of the compound; assay type: physicochemical
[2] = biological target: T1, Progesterone receptor (Homo sapiens, UniProt P06401); experiment: Antagonist activity at PR (unknown origin)
T1 sequence (P06401 whole entry): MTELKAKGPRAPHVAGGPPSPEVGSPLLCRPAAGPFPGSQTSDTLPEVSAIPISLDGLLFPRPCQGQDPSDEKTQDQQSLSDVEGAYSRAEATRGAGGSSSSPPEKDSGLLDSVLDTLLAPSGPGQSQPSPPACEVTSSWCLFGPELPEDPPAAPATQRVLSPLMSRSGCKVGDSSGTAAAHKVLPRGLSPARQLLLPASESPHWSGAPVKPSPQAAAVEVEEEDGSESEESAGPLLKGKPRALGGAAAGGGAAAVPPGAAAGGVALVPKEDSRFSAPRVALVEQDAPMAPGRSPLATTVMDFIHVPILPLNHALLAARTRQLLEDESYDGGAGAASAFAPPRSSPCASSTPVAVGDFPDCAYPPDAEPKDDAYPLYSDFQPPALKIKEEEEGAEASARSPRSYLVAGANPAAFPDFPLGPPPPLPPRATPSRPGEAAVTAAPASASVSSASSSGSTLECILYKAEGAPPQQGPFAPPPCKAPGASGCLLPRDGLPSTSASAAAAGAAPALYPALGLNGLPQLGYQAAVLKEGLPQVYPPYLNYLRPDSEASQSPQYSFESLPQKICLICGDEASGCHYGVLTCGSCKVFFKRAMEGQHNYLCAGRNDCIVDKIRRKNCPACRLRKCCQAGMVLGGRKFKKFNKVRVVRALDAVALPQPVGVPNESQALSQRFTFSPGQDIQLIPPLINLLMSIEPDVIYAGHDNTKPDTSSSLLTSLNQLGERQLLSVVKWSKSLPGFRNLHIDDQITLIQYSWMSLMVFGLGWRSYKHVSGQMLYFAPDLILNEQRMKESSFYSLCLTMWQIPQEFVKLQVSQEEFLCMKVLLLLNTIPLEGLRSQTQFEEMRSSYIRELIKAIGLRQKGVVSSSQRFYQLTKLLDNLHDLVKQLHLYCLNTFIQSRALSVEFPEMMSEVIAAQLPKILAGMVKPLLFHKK

[3] = biological target: CYP2C9 (Homo sapiens, UniProt P11712); experiment: Inhibition of CYP2C9 (unknown origin) at 3 uM; assay type: ADME
Sequence of CYP2C9 (P11712 whole entry): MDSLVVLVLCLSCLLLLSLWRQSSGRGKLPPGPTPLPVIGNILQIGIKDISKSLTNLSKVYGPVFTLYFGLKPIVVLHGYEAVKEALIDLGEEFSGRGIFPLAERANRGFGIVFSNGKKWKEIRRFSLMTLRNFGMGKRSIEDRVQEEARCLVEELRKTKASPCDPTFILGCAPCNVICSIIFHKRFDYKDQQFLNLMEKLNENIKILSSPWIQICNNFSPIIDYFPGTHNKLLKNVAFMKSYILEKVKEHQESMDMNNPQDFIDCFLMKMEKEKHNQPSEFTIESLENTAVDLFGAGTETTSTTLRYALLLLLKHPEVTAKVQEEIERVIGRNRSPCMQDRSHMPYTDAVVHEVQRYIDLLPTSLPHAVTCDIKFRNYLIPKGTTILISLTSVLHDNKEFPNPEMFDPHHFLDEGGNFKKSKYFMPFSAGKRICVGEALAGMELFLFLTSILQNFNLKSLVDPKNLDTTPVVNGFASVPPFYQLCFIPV

In the case of `COc1cc(NS(=O)(=O)C(F)(F)F)cc(OC)c1Oc1ccc(C#N)c(Cl)c1`, the pKa [1] is reported as 4.5, the IC50 [2] is reported as 175 nM and the inhibition at 3 µM [3] is reported as 95%.

Compound `N#Cc1ccc(O[C@H]2CC[C@H](NS(=O)(=O)C(F)(F)F)CC2)cc1Cl` has an IC50 [2] of 43 nM and an inhibition at 3 µM [3] of 77%.

`CS(=O)(=O)N[C@H]1CC[C@H](Oc2ccc(C#N)c(Cl)c2)CC1` showed an IC50 [2] of 107 nM and an inhibition at 3 µM [3] of 0%.

Compound `COc1cc(NS(C)(=O)=O)cc(OC)c1Oc1ccc(C#N)c(Cl)c1` has a pKa [1] of 8.5, an IC50 [2] of 26 nM and an inhibition at 3 µM [3] of 9%.
